Legend:
[1] = biological target: human α1-isoform of Na+/K+-ATPase (Homo sapiens, UniProt P05023); conditions: cited from earlier work
[2] = biological target: rodent α1-isoform of Na+/K+-ATPase (Rattus norvegicus, UniProt P06685); conditions: cited from earlier work
[3] = tested on: GAPDH expression in HeLa cells; assay: siGAPDH-LNP knockdown by immunoblotting in HeLa cells; type: cell-based, human
Description: HeLa cells were plated in twelve-well plates for indicated times. They were then washed in PBS and extracted in RIPA buffer (1% NP-40 and 0.5% Deoxycholic in 1×PBS) supplemented with protease inhibitor tablets (Roche Diagnostics). Total protein quantified by the Bradford Assay was analyzed by immunoblotting using antibodies to GAPDH, β-actin (Abcam, Cambridge, Mass.) or ATP1A1 ((Millipore, Billerica, Mass.). Antigen-antibody complexes in immunoblots were detected using Millipore Immobilon Western Chemiluminescent HRP Substrate (Millipore, Billerica, Mass.).
Knockdown effect of our LNP systems in the presence or absence of ouabain was also examined (FIG. 9B). GAPDH was chosen as a target gene since it is ubiquitously expressed at high levels in all cell types. siGAPDH or negative control siScramble was encapsulated in our LNP systems and incubated with cells for 24 hrs in the presence or absence of ouabain. Cells were further incubated in plain medium for 48 hrs before protein expression was analyzed. We observed that cells incubated continuously with ouabain for longer than 24 hrs were unhealthy (data not shown). […] It is noteworthy that LNP encapsulating siGAPDH or siScramble contained 1 mol % of PEG-s-DMG. […]

HeLa cells = assay: LNP uptake in HeLa cells (SPDiO fluorescence, Cellomics / confocal); type: cell-based, human; conditions: 30 nM ouabain, 24 hrs, confocal quantification
Description: All cell lines were seeded at 5000 to 20,000 cells/well of 96-well ViewPlate (PerkinElmer, Shelton, Conn., USA) in 100 μl of medium and were allowed to grow overnight. Fresh medium containing 5 or 10 μg/ml of siRNA encapsulated in LNP was added the next day. Small molecules were either added manually or pinned from 1000-fold stocks in DMSO using a pinning robot equipped with 0.4 mm pins (BioRobotics, Cambridge, UK). Cells were incubated for 24 h. Cells were then washed once in PBSCM (1×PBS containing […] CaCl2), fixed in 3% paraformaldehyde containing Hoescht's stain for 15 min, washed once in PBSCM and stored in 100 μl of PBSCM.
Plates were imaged using a Cellomics Arrayscan VTI HCS Reader (Thermo Scientific, Pittsburgh, Pa., USA). Images were acquired using a 20× PlanFluor objective and a XF93 filter set. Object identification and image analysis were performed using the Cellomics Compartmental Analysis algorithm. Cellular SPDiO and siRNA-Cy3 fluorescence intensities were measured for a minimum of 400 cells and the average pixel intensity was examined. For confocal microscopy, cells grown on glass coverslips were washed once in 1×PBS, fixed in 3% paraformaldehyde containing Hoechst's stain for 15 min, washed again and mounted on slides. Images were captured on an Olympus FV1000 (Olympus, Center Valley, Pa., USA) laser scanning microscope and cellular SPDiO fluorescence intensity was analyzed using ImageJ (NIH, http://rsb.info.nih.gov/ij/).

[4] = tested on: GAPDH protein expression in LNCaP cells; assay: GAPDH siRNA-LN knockdown in LNCaP cells; type: cell-based, human; conditions: data not shown
Description: FIG. 5: Raw264.7 cells were treated for 24 hours with siRNACy3 encapsulated in DLinDMA LNs in the presence or absence of 5% CQ-lipid. A lipid label, SPDiO, was incorporated into the LN to monitor uptake. LN uptake was assessed by (A) SPDiO fluorescence and distribution of siRNA was assessed by (B) Cy3 fluorescence using the Cellomics ArrayScan VTI. (C) Raw264.7 cells were incubated with the same LN formulations as in (B) for 24 hours at 10 μg/mL siRNACy3. siRNACy3 distribution was examined by confocal microscopy. (D) GAPDH siRNA was formulated into LN particles comprising of 40% DLinDMA with 0% CQ-lipid or 40% DLinDMA with 5% CQ-lipid. Raw264.7 cells were treated with 5, 10 and 20 μg/mL of siRNA for 48 and 72 hours. GAPDH protein expression was assessed by western blotting against anti-GAPDH and anti-actin. (E) LNCaP cells were treated accordingly as in (D).
Perhaps most importantly, we wanted to determine whether the enhanced cytosolic distribution of siRNACy3 observed with the CQ-lipid correlated to enhanced gene knockdown. Glyceraldehyde 3-phosphate dehydrogenase (GAPDH) is an ubiquitously expressed cytosolic protein and therefore knockdown efficiency of encapsulated siRNA can be tested in different cell lines (Barber et al., 2005). Raw264.7 cells were treated with LN of varying concentration of GAPDH siRNA for 24, 48 and 72 hours. Total protein was isolated and analyzed for GAPDH levels by immunoblotting. […] The function of GAPDH siRNA was specific since actin expression was unaltered (FIG. 5D). To confirm the function of the CQ-lipid in the LN-siRNA-mediated gene knockdown, GAPDH silencing was also assessed in LNCaP cells (FIG. 5E).

SMILES: C[C@@H]1O[C@@H](O[C@H]2C[C@@H](O)[C@]3(CO)[C@H]4[C@H](O)C[C@]5(C)[C@@H](C6=CC(=O)OC6)CC[C@]5(O)[C@@H]4CC[C@]3(O)C2)[C@H](O)[C@H](O)[C@H]1O [ouabain]
- sensitivity to ouabain [1]: highly sensitive
- sensitivity to ouabain, less than human α1-isoform [2]: 1000 fold
- cell health on continuous incubation ([3]; incubated continuously with ouabain for longer than 24 hrs (data not shown)): unhealthy
- Expression of GAPDH ([3]; siGAPDH-LNP 10 ug/ml with 30 nM ouabain 24 h, then 48 hrs fresh medium): substantially reduced
- cellular SPDiO fluorescence (LNP content) relative to untreated cells (HeLa cells): 2.5 times
- GAPDH knockdown with ouabain [4]: enhanced GAPDH knockdown
